In ChEMBL document CHEMBL5728039, “Inhibitors of Bruton's tyrosine kinase and method of their use” (2020):

Target: Tyrosine-protein kinase BTK (Homo sapiens, UniProt Q06187)
Assay: TBD: TBD

Sequence of Tyrosine-protein kinase BTK (Q06187 whole entry): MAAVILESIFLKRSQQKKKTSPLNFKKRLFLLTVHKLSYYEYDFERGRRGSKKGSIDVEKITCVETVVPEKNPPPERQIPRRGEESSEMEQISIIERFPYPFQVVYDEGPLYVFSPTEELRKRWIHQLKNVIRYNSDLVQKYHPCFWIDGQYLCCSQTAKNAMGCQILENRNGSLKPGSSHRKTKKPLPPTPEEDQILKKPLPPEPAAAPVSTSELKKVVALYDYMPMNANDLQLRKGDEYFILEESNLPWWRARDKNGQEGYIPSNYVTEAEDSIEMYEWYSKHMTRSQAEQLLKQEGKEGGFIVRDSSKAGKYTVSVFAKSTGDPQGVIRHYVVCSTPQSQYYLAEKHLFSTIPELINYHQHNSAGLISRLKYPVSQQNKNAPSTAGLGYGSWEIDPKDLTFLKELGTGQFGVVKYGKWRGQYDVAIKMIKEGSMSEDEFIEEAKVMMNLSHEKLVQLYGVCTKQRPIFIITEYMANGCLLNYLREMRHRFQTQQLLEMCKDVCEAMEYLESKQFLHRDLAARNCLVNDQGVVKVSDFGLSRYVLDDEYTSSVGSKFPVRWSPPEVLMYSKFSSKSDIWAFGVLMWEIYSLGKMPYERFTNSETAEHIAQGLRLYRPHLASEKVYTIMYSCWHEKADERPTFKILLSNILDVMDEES

| SMILES | IC50 [nM] |
| --- | --- |
| CN1CC(NC(=O)c2sc3nccc4c3c2NC(=O)N4c2ccc(Oc3ccccc3)cc2)CC1=O (stereo not drawn) | 398 |
| Cc1cc(Oc2ccccc2)ccc1N1C(=O)Nc2c(C(=O)N[C@@H]3CCCOC3)sc3nccc1c23 | 25.1 |
| C=CC(=O)N1CCC[C@@H](NC(=O)c2sc3nccc4c3c2NC(=O)N4c2ccc(Oc3cccnn3)cc2)C1 | > 1000 |
